The results in this text go back to patent US8987256B2, “Oxo-heterocyclic substituted carboxylic acid derivatives and the use thereof” (Bayer Intellectual Property GmbH, priority 2008, dated 2015).

Test [1] addresses T1, soluble guanylate cyclase (sGC) (Rattus norvegicus, UniProt P20595).
T1 construct: made in house; host or cells: baculovirus/Sf9 insect cells
T1 sequence (P20595 1-619): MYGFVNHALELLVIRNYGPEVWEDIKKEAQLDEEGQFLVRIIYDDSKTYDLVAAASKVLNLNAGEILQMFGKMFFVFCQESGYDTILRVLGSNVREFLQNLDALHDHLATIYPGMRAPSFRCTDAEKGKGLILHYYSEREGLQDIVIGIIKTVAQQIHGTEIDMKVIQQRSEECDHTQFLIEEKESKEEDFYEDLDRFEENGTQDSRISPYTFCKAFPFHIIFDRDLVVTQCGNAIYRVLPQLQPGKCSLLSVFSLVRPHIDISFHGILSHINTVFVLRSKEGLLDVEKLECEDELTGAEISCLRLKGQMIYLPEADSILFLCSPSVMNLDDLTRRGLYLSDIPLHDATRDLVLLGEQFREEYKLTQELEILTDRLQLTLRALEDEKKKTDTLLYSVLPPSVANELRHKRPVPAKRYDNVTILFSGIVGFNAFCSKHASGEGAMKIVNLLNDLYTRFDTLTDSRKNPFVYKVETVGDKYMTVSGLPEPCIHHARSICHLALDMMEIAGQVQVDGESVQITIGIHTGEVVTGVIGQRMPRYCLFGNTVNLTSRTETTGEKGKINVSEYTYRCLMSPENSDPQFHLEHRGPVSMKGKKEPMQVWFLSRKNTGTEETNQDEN
T1 sequence (P19686 1-690 partner): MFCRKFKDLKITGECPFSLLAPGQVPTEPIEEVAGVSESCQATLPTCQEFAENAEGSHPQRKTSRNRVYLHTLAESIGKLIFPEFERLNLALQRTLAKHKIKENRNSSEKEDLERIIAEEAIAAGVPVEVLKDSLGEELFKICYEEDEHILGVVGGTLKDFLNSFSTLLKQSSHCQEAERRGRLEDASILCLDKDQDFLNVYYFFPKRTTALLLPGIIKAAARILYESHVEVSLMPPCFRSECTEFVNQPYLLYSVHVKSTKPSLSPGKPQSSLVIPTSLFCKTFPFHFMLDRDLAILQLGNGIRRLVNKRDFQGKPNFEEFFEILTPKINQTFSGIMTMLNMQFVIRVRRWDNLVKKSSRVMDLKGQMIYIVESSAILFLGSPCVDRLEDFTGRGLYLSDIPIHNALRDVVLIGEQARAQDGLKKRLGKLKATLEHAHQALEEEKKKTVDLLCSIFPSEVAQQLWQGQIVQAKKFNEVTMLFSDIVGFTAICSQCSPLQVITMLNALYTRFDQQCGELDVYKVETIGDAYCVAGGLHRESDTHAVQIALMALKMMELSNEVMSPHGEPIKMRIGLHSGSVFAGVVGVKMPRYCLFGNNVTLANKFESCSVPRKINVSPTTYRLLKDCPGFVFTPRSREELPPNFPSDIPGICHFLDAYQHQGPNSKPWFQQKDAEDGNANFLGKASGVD
Description: Activating action at the sGC enzyme in vitro (PPi detection, luciferase). Type of test: biochemical. To be noted: for EC50: read-out: EC50 (concentration at 50% of maximum efficacy), activating action at the sGC enzyme. In a few lines: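 Rat sGC (0–10 nM) preincubated 10 min at room temperature with compound in TEA buffer, pH 7.5; reaction started with GTP (1.25 mM solution). PPi formed read continuously by luciferase luminescence; stimulation expressed relative to unstimulated enzyme. Heme-free enzyme tested after 30 min with 25 μM ODQ.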

In a further test the test system is saphenous artery rings. Description: Vasorelaxant effect in vitro (phenylephrine-contracted artery rings). To be noted: Oryctolagus cuniculus, concentration reducing phenylephrine-induced contraction by 50%. Also noted: species or system Rabbits. The method, then:
Rabbits are anesthetized and sacrificed by intravenous injection of thiopental sodium (about 50 mg/kg) and exsanguinated. The saphenous artery is removed and divided into rings 3 mm wide. The rings are mounted singly on in each case a pair of triangular hooks open at the end and made of 0.3 mm-thick special wire (Remanium®). Each ring is placed under an initial tension in 5 ml organ baths with Krebs-Henseleit solution which is at 37° C., is gassed with carbogen and has the following composition: NaCl 119 mM; KCl 4.8 mM; CaCl2×2H2O 1 mM; MgSO4×7H2O 1.4 mM; KH2PO4 1.2 mM; NaHCO3 25 mM; glucose 10 mM; bovine serum albumin 0.001%. The force of contraction is detected with Statham UC2 cells, amplified and digitized via A/D converters (DAS-1802 HC, Keithley Instruments, Munich) and recorded in parallel on chart recorders. Contractions are induced by addition of phenylephrine.
After several (generally 4) control cycles, the substance to be investigated is added in each further run in increasing dosage, and the level of the contraction achieved under the influence of the test substance is compared with the level of the contraction reached in the last preceding run. The concentration necessary to reduce the contraction reached in the preceding control by 50% is calculated from this (IC50). The standard application volume is 5 μl. The proportion of DMSO in the bath solution corresponds to 0.1%.

Test [2] deals with T2, recombinant guanylate cyclase reporter cell line (Rattus norvegicus, UniProt P20595).
T2 construct: expressed in transfected cells; host or cells: CHO reporter cell line
T2 sequence (P20595 1-619): T1 sequence (P20595 1-619)
T2 sequence (P19686 1-690 partner): T1 sequence (P19686 1-690 partner)
Put plainly: sGC-activating activity in the CHO reporter cell in vitro. Type of test: cell-based. The protocol:
The cellular action of the compounds according to the invention is determined at a recombinant guanylate cyclase reporter cell line, as described in F. Wunder et al., Anal. Biochem. 339, 104-112 (2005).

Usually IC50 stands for the point on the concentration scale where inhibition reaches its midpoint. A higher IC50 goes with a need for much substance. For `O=C(Nc1cccc(CC2(C(=O)O)CC2)c1)[C@H](c1ccc(CN2N=C(c3ccccc3)OCC2=O)cc1)C1CCCC1` [Example 204, (+)-1-(3-{[(2S)-2-Cyclopentyl-2-{4-[(5-oxo-2-phenyl-5,6-dihydro-4H-1,3,4-oxadiazin-4-yl)-methyl]phenyl}acetyl]amino}benzyl)cyclopropane carboxylic acid], in test [1], the “MEC (minimum effective concentration), activating action at the sGC enzyme” value (“MEC … at the sGC enzyme” below) turned out to be 0.5 nM and the EC50 is 18 nM. Also, 86 nM corresponded to half-maximal inhibition in the test with saphenous artery rings (IC50). The “MEC (minimum effective concentration), sGC-activating activity in the CHO reporter cell” value (“MEC … in the CHO reporter cell” for short) in test [2] was 1 nM.
For `CC1(C(=O)O)Cc2cccc(NC(=O)C(c3ccc(CN4N=C(c5ccccc5)OCC4=O)cc3)C3CCCC3)c2C1` (single isomer, unassigned) [Example 46, 4-[(Cyclopentyl{4-[(5-oxo-2-phenyl-5,6-dihydro-4H-1,3,4-oxadiazin-4-yl)methyl]phenyl}-acetyl)amino]-2-methyl-2,3-dihydro-1H-indene-2-carboxylic acid], in that order: 4.1 nM, 130 nM, 110 nM and 3 nM.
For `CCC(C)C(C(=O)Nc1cccc2c1CC(C)(C(=O)O)C2)c1ccc(CN2N=C(c3ccccc3)OCC2=O)cc1` (single isomer, unassigned) [Example 86, 2-Methyl-4-[(3-methyl-2-{4-[(5-oxo-2-phenyl-5,6-dihydro-4H-1,3,4-oxadiazin-4-yl)methyl]-phenyl}pentanoyl)amino]-2,3-dihydro-1H-indene-2-carboxylic acid], in test [1], the “MEC … at the sGC enzyme” value was 1.4 nM and the EC50 was determined as 73 nM. Further, in the test on saphenous artery rings, the IC50 was found to be 180 nM. Besides, the “MEC … in the CHO reporter cell” value in test [2] was 1 nM.
Taken in the same sequence, the figures for `CCC(C)C(C(=O)Nc1cccc(CCC(=O)O)c1C)c1ccc(CN2N=C(c3ccccc3)OCC2=O)cc1` (single isomer, unassigned) [Example 77, 3-{2-Methyl-3-[(3-methyl-2-{4-[(5-oxo-2-phenyl-5,6-dihydro-4H-1,3,4-oxadiazin-4-yl)methyl]phenyl}pentanoyl)amino]phenyl}propanoic acid] were 0.4 nM, 24 nM, 625 nM and 1 nM.
On to `Cc1c(CCC(=O)O)cccc1NC(=O)C(c1ccc(CN2N=C(c3ccccc3)OCC2=O)cc1)C1CCCC1` (single isomer, unassigned) [Example 115, 3-{3-[(cyclopcntyl{4-[(5-oxo-2-phcnyl-5,6-dihydro-4H-1,3,4-oxadiazin-4-yl)mcthyl]phcnyl}acetyl)amino]-2-mcthylphcnyl}propanoic acid], for which, in test [1], the “MEC … at the sGC enzyme” value worked out at 1.6 nM and the EC50 was found to be 40 nM. This compound also came in with an IC50 in the test on saphenous artery rings of 163 nM. Moreover, the “MEC … in the CHO reporter cell” value in test [2] is 3 nM.
Taken in the same sequence, the figures for `O=C(O)CCc1ccc(F)c(NC(=O)[C@H](c2ccc(CN3N=C(c4ccccc4)OCC3=O)cc2)C2CCCC2)c1` [Example 224] were 1 nM, 20 nM, 490 nM and 1 nM.
For the compound `O=C(O)C1Cc2cccc(NC(=O)C(c3ccc(CN4N=C(c5ccccc5)OCC4=O)cc3)C3CCCC3)c2C1` (single isomer, unassigned) [Example 126, 4-[(cyclopcntyl{4-[(5-oxo-2-phcnyl-5,6-dihydro-4H-1,3,4-oxadiazin-4-yl)mcthyl]phcnyl}acetyl)amino]-2,3-dihydro-1H-indenc-2-carboxylic acid], in test [1], the “MEC … at the sGC enzyme” value is reported as 10 nM and the EC50 is 320 nM. This compound also gave an IC50 in the test on saphenous artery rings of 145 nM. Moreover, the “MEC … in the CHO reporter cell” value in test [2] turned out to be 30 nM.
